Test results: article PMC8351955, “Targeting Mycobacterium tuberculosis response to environmental cues for the development of effective antitubercular drugs” (PLoS Biology, 2021)
Values joined by “and” are separate entries in the source; they are usually repeats but may differ in a detail not shown here. Identical values can stand only once. Like-named read-outs stand apart in the source and are kept apart here.

Experiments:
[1] = test system: macrophage phagosomal proteolytic activity in BMDMs; experiment: Phagosomal maturation assay, DQ-BSA/AF594 beads (proteolysis readout); assay type: cell-based, mouse; settings: for DQ-BSA/AF594, Average: average of 4 replicates
Procedure: Carboxyfluorescein (pH readout), DQ-BSA/Alexa Fluor 594 (AF594) (proteolysis readout), and BAC/AF594 (Cl^− readout) beads were generated essentially as previously described, except that 10,10′-Bis[3-carboxylpropyl]-9,9′-biacridinium dinitrate di-NHS ester (BAC-SE) was purchased from emp Biotech LLC. BMDMs were isolated from C57BL/6J mice (The Jackson Laboratory) and maintained as described above. A quantity of 2 × 10^5 macrophages/well were seeded into 96-well clear bottom black plates and utilized in assays 1 to 2 days post-seeding. […] Assay buffer consisted of PBS (pH 7.2), supplemented with 5% FBS, 5 mM dextrose, 1 mM CaCl2, 2.7 mM KCl, and 0.5 mM MgCl2 in the case of assays with the carboxyfluorescein or DQ-BSA/AF594 beads. For assays with the BAC/AF594 beads, assay buffer consisted of PBS (pH 7.2), supplemented with 5% FBS, 5 mM dextrose, 1 mM calcium acetate, 1.35 mM K2SO4, and 0.5 mM MgSO4 [9]. Sensor beads at approximately 2 to 5 beads/macrophage in appropriate assay buffer were finally added, with data acquisition on a Biotek Synergy H1 microplate reader with bottom read signal detection started within 2 to 3 minutes of bead addition. Excitation/emission wavelengths were 450 nm/520 nm and 490 nm/520 nm for carboxyfluorescein, 490 nm/520 nm for DQ-BSA, 365 nm/505 nm for BAC, and 590 nm/617 nm for AF594. Each experiment was run with a total of 3 to 5 replicate wells/condition, with temperature maintained at 37°C throughout the assay. Wells were read every 2 minutes for 2 hours for the carboxyfluorescein bead assays, every 2 minoutes for 4 hours for the DQ-BSA/AF594 bead assays, and every 1 minute for 2 hours for the BAC/AF594 bead assays. Analyses of the results were performed as previously described.

[2] = molecular target: CYP2C9 (Homo sapiens, UniProt P11712); experiment: Human cytochrome P450 inhibition, 2C9; assay type: in vitro ADME; settings: read-out: % inhibition of CYP 2C9
Procedure: (§1) Assays examining mouse and human liver microsomal stability, kinetic aqueous solubility, mouse and human plasma protein binding and stability, and human cytochrome P450 inhibition characteristics of the compounds were run by BioDuro (San Diego, CA), using standard protocols as previously described [37]. hERG inhibition assays were also performed by BioDuro.

[3] = Human plasma stability; assay type: in vitro ADME; settings: 5-h incubation
Procedure: as §1

[4] = Vero cell toxicity assay (MTS); assay type: cell-based; settings: African green monkey, Vero cells
Procedure: Vero cells (African green monkey kidney epithelial cells; ATCC CCL-81) were maintained in DMEM + 10% FBS. For the cell toxicity assay, Vero cells were plated at 1 × 10^5 cells/well in a 96-well plate and incubated for 2 to 3 hours to allow cells to settle. The test compound was dissolved in DMSO at a final concentration of 12 mg/ml. The test compound solution was then added to plated cells, resulting in final test concentrations of 50 to 0.78 μg/ml, with each concentration tested at least in duplicate. To evaluate […] cell viability, 20 μl of a 1:20 MTS:PMS reagent (Promega CellTiter 96 AQueous nonradioactive cell proliferation assay kit) was added to each well after 72 hours of incubation at 37°C, and the plate then incubated for an additional 3 hours. Absorbance at 490 nm was read on a Molecular Devices SpectraMax M5 microplate reader. The CC50 (the minimal amount of compound that inhibited Vero cell growth by 50%) was extrapolated by plotting absorbance at 490 nm versus the concentration […].

[5] = test system: WT Mtb (Erdman) in primary murine BMDMs; experiment: Primary murine bone marrow-derived macrophage infection, CFU; assay type: cell-based, Mycobacterium tuberculosis; settings: for CFU/ml in BMDMs, average: Fig 1I; for CFU/ml: Fig. 2E, 10 µM
[6] = Mouse liver microsomal stability; assay type: in vitro ADME; settings: mouse liver microsomes; read-out: half-life (t1/2) in mouse liver microsomes
Procedure: as §1

[7] = test system: CDC1551(rv2390c′::GFP) reporter Mtb strain, response to high [Cl−]; experiment: microbe, parasite or virus in culture; assay type: cell-based, Mycobacterium tuberculosis

CYP2C9, sequence (P11712 whole entry): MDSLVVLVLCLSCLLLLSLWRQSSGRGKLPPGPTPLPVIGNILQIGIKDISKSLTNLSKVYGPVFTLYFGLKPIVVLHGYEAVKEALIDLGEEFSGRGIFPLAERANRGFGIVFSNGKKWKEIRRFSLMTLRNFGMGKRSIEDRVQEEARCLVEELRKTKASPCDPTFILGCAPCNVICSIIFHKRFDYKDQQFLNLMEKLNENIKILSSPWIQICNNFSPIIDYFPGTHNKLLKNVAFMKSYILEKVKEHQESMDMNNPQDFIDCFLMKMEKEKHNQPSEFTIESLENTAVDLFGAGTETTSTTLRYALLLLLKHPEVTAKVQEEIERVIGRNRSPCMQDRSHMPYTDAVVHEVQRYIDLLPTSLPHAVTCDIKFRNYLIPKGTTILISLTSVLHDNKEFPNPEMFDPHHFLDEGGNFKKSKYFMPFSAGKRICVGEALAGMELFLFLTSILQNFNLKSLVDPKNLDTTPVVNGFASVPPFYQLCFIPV

## CCSc1ncc(CN2CCN(c3nc4ccccc4o3)CC2)cn1 [C6, 2-(4-((2-(ethylthio)pyrimidin-5-yl)methyl)piperazin-1-yl)benzo[d]oxazole]
[1]; 10 μM, uninfected BMDMs
  Effect on macrophage phagosomal proteolytic activity: did not affect
[1]; Time 0 minutes
  DQ-BSA/AF594, single replicates (Rep 1-4): 0.14 and 0.1347 and 0.1424 and 0.1346
[1]; Time 2 minutes
  DQ-BSA/AF594, single replicates (Rep 1-4): 0.135 and 0.1275 and 0.1349 and 0.128
[1]; Time 4 minutes
  DQ-BSA/AF594, single replicates (Rep 1-4): 0.1412 and 0.1359 and 0.1424 and 0.1318
[1]; time 0 minutes
  DQ-BSA/AF594, Average: 0.1379
[1]; time 2 minutes
  DQ-BSA/AF594, Average: 0.1314
[1]; time 4 minutes
  DQ-BSA/AF594, Average: 0.1378
[1]; time 6 minutes
  DQ-BSA/AF594, single replicates (Rep 1-4): 0.1434 and 0.1398 and 0.1395 and 0.1344
  DQ-BSA/AF594, Average: 0.1393
[1]; time 8 minutes
  DQ-BSA/AF594, single replicates (Rep 1-4): 0.1391 and 0.1428 and 0.1447 and 0.1317
  DQ-BSA/AF594, Average: 0.1396
[1]; time 10 minutes
  DQ-BSA/AF594, single replicates (Rep 1-4): 0.146 and 0.145 and 0.1422 and 0.1332
  DQ-BSA/AF594, Average: 0.1416
[1]; time 12 minutes
  DQ-BSA/AF594, single replicates (Rep 1-4): 0.1443 and 0.1415 and 0.1428 and 0.1313
  DQ-BSA/AF594, Average: 0.14
[1]; time 14 minutes
  DQ-BSA/AF594, single replicates (Rep 1-4): 0.1461 and 0.1457 and 0.1422 and 0.1412
  DQ-BSA/AF594, Average: 0.1438
[1]; time 16 minutes
  DQ-BSA/AF594, single replicates (Rep 1-4): 0.1457 and 0.1504 and 0.1476 and 0.1404
  DQ-BSA/AF594, Average: 0.146
[1]; time 18 minutes
  DQ-BSA/AF594, single replicates (Rep 1-4): 0.152 and 0.1539 and 0.1536 and 0.1434
  DQ-BSA/AF594, Average: 0.1507
[1]; time 20 minutes
  DQ-BSA/AF594, single replicates (Rep 1-4): 0.1544 and 0.1557 and 0.1584 and 0.1468
  DQ-BSA/AF594, Average: 0.1538
[1]; time 22 minutes
  DQ-BSA/AF594, single replicates (Rep 1-4): 0.1647 and 0.1693 and 0.1637 and 0.1551
  DQ-BSA/AF594, Average: 0.1632
[1]; time 24 minutes
  DQ-BSA/AF594, single replicates (Rep 1-4): 0.178 and 0.18 and 0.1857 and 0.1719
  DQ-BSA/AF594, Average: 0.1789
[1]; time 26 minutes
  DQ-BSA/AF594, single replicates (Rep 1-4): 0.2064 and 0.2113 and 0.205 and 0.1944
  DQ-BSA/AF594, Average: 0.2043
[1]; time 28 minutes
  DQ-BSA/AF594, single replicates (Rep 1-4): 0.2506 and 0.2446 and 0.2477 and 0.2339
  DQ-BSA/AF594, Average: 0.2442
[1]; time 30 minutes
  DQ-BSA/AF594, single replicates (Rep 1-4): 0.3139 and 0.29 and 0.311 and 0.2857
  DQ-BSA/AF594, Average: 0.3002
[2]
  inhibition at 10 µM: 25.7%
[3]
  remaining at 5 h: 94.6%
[4]
  CC50 at 72 h: > 50 µg/mL
[5]; 10 μM, 8-day infection time course, vs DMSO
  Effect on bacterial load / Mtb growth in primary murine BMDMs: significant decrease in bacterial load
[5]; 10 μM, day 2
  CFU/ml in BMDMs, average: 153500 CFU/ml
[5]; 10 μM, day 4
  CFU/ml in BMDMs, average: 188500 CFU/ml
[5]; 10 μM, day 6
  CFU/ml in BMDMs, average: 283000 CFU/ml
[5]; 10 μM, day 8
  CFU/ml in BMDMs, average: 322500 CFU/ml
[5]; day 2, average
  CFU/ml: 426000 CFU/ml
[5]; day 2, individual replicates
  CFU/ml: 406000 CFU/ml and 418000 CFU/ml and 454000 CFU/ml
[5]; day 4, average
  CFU/ml: 573333 CFU/ml
[5]; day 4, individual replicates
  CFU/ml: 580000 CFU/ml and 640000 CFU/ml and 500000 CFU/ml
[5]; day 6, average
  CFU/ml: 746667 CFU/ml
[5]; day 6, individual replicates
  CFU/ml: 700000 CFU/ml and 660000 CFU/ml and 880000 CFU/ml
[5]; day 8, average
  CFU/ml: 1020000 CFU/ml
[5]; day 8, individual replicates
  CFU/ml: 880000 CFU/ml and 1100000 CFU/ml and 1080000 CFU/ml
[6]
  half-life: 48.5 min
[7]; 0.0390625 µM, Fig 1C
  NPA - rv2390c'::GFP, average: 83.3%
[7]; 0.078125 µM, Fig 1C
  NPA - rv2390c'::GFP, average: 86.0333%
[7]; 0.15625 µM, Fig 1C
  NPA - rv2390c'::GFP, average: 80.7667%
[7]; 0.3125 µM, Fig 1C
  NPA - rv2390c'::GFP, average: 92.0333%
[7]; 0.625 µM, Fig 1C
  NPA - rv2390c'::GFP, average: 91.4667%
[7]; 1.25 µM, Fig 1C
  NPA - rv2390c'::GFP, average: 105.667%
[7]; 2.5 µM, Fig 1C
  NPA - rv2390c'::GFP, average: 116.333%
[7]; 5 µM, Fig 1C
  NPA - rv2390c'::GFP, average: 113%
[7]; 10 µM, Fig 1C
  NPA - rv2390c'::GFP, average: 126.667%
[7]; 20 µM, Fig 1C
  NPA - rv2390c'::GFP, average: 131%
[7]; Mycobacterium tuberculosis, 144 h, pH 6.4, […], DMSO positive control = 100%, read-out: Primary screen rv2390c'::GFP NPA%
  activity at 10 µM: 164%
[7]; Mycobacterium tuberculosis, 144 h, 10 µM, pH 6.4, 250 mM NaCl, 6 days, read-out: rv2390c'::GFP validation assay NPA% at 10 µM compound
  activity at 10 µM: 127 ± 1.5%
[7]; Mycobacterium tuberculosis, 144 h, 20 µM, pH 6.4, 250 mM NaCl, 6 days, read-out: rv2390c'::GFP validation assay NPA% at 20 µM compound
  activity at 20 µM: 131 ± 3.6%
[7]; Mycobacterium tuberculosis, 144 h, pH 6.4, 250 mM NaCl, 6 days, Fig 1C, read-out: AC50 (activatory concentration, 50%), rv2390c′::GFP
  AC50: 1800 nM
